Measurements published in patent US9073892B2, “Indazolyl triazol derivatives” (Merck Serono S.A., priority 2010, dated 2015).

What was measured:
[1] = system: IL1β-induced IL8 release in THP1 cells; experiment: IRAK IL8 secretion functional assay; assay type: cell-based; conditions: Homo sapiens; THP-1 cells, IL1β 100 ng/ml overnight, IL8 by HTRF; read-out: IC50, Secretion THP-1/IL-β induced IL8 release
Source text: IRAK IL8 Secretion Functional Assay:
THP1 cells are human monocytes derived from acute monocytic leukemia. IL1β receptor expressed on the surface membrane of THP1 cells induced IL8 release. IRAKs are kinase signaling downstream of TLRs and TNF, IL-18, IL-33 and IL-1 receptors.
In cells, IRAK4 is upstream of IRAK1.
The Human IL8 Kit, provided by CysBio International based in Bagnols/Cèze FR, allows for the quantitative determination of IL-8 in cell-culture supernatants.
Anti-cytokine IL8 antibodies are respectively labeled with europium Cryptate and XL665. Upon their binding to IL-8 molecules, the two antibodies come into close proximity, allowing FRET (Fluorescence Resonance Energy Transfer) to occur. This FRET increases proportionally to IL-8 concentrations and be converted in IL8 pg amounts.
THP-1 cells are seeded on Day 1 in 384 well plate with RPMI 1640 at a density of 30 000 cells/well. Compounds 4×/2% DMSO (range of concentrations from 20 μM to 1 nM) and IL1β 4× at 100 ng/ml final are added to cells overnight at 37° C., 5% CO2. Measurement of IL-8 secretion is done by mixing on Day2 10 μl of supernatant with 10 μl of a mix solution of europium Cryptate and XL665 (v:v) as described by supplier.
HTRF (homogeneous time resolved fluorescence) signal is measured after 3 hours incubation time at 30° C. with a BMG Pherastar reader or equivalent.

IRAK1/4 human = system: T1, IRAK1/4 human; experiment: IRAK1/4 phosphorylation IC50 (enzymatic assay, table 2); assay type: biochemical; conditions: human IRAK1/4 phosphorylation
T1 construct: fused on or other part: His tag and TEV cleavage site at the N-terminus
Outline: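 Compounds in DMSO, from 20 µM down to 1 nM, were incubated with ATP and His-TEV-tagged human IRAK-1 or IRAK-4 in 384-well plates, with STK1-biotin peptide added for IRAK-4. The 2 or 3 hour reactions used Hepes pH7.0 50 mM with MgCl2, DTT, EGTA and BSA. The values report inhibition as IC50.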

Row | SMILES | IC50 [1] [µM] | IC50 (IRAK1/4 human) [µM]
1 | O=C(NCCN1CCCCC1)c1ccc(-n2cc(-c3n[nH]c4ccccc34)nn2)cc1 [Example 44, 4-[4-(1H-indazol-3-yl)-1H-1,2,3-triazol-1-yl]-N-(2-piperidin-1-ylethyl)benzamide] | 0.1 to 1 | 0.1 to 1
2 | CN1CCCN(C(=O)c2ccc(-n3cc(-c4n[nH]c5ccccc45)nn3)cc2)CC1 [Example 48, 3-(1-{4-[(4-methyl-1,4-diazepan-1-yl)carbonyl]phenyl}-1H-1,2,3-triazol-4-yl)-1H-indazole] | 0.1 to 1 | 0.1 to 1
3 | CCNC(=O)c1ccc(-n2cc(-c3n[nH]c4ccccc34)nn2)cc1 [Example 49, N-ethyl-4-[4-(1H-indazol-3-yl)-1H-1,2,3-triazol-1-yl]benzamide] | 0.1 to 1 | 0.1 to 1
4 | COCCNC(=O)c1ccc(-n2cc(-c3n[nH]c4ccccc34)nn2)cc1 [Example 50, 4-[4-(1H-indazol-3-yl)-1H-1,2,3-triazol-1-yl]-N-(2-methoxyethyl)benzamide] | 0.1 to 1 | 0.1 to 1
5 | O=C(NCc1ccco1)c1ccc(-n2cc(-c3n[nH]c4ccccc34)nn2)cc1 [Example 51, N-(2-furylmethyl)-4-[4-(1H-indazol-3-yl)-1H-1,2,3-triazol-1-yl]benzamide] | 1 to 5 | 0.1 to 1
6 | CCN1CCN(C(=O)c2ccc(-n3cc(-c4n[nH]c5ccccc45)nn3)cc2)CC1 [Example 52, 3-(1-{4-[(4-ethylpiperazin-1-yl)carbonyl]phenyl)-1H-1,2,3-triazol-4-yl)-1H-indazole] | 0.1 to 1 | 0.1 to 1
7 | O=C(NC1CC1)c1ccc(-n2cc(-c3n[nH]c4ccccc34)nn2)cc1 [Example 53, N-cyclopropyl-4-[4-(1H-indazol-3-yl)-1H-1,2,3-triazol-1-yl]benzamide] | 0.1 to 1 | 0.1 to 1
8 | CNC(=O)c1ccc(-n2cc(-c3n[nH]c4ccccc34)nn2)cc1 [Example 54, 4-[4-(1H-indazol-3-yl)-1H-1,2,3-triazol-1-yl]-N-methylbenzamide] | 0.1 to 1 | 0.1 to 1
9 | O=C(NCC1CC1)c1ccc(-n2cc(-c3n[nH]c4ccccc34)nn2)cc1 [Example 55] | 0.1 to 1 | 0.1 to 1
10 | CCN1CCN(C(=O)c2cccc(-n3cc(-c4n[nH]c5ccccc45)nn3)c2)CC1 [Example 60, 3-(1-{3-[(4-ethylpiperazin-1-yl)carbonyl]phenyl}-1H-1,2,3-triazol-4-yl)-1H-indazole] | 1 to 5 | 1 to 5
11 | O=C(c1ccc(-n2cc(-c3n[nH]c4ccccc34)nn2)cc1)N1CCC(O)CC1 [Example 71, 1-{4-[4(1H-indazol-3-yl)-1H-1,2,3-triazol-1-yl]benzoyl}piperidin-ol] | 0.1 to 1 | 0.1 to 1
12 | CN(C)C1CCN(C(=O)c2ccc(-n3cc(-c4n[nH]c5ccccc45)nn3)cc2)CC1 [Example 72, 1-{4-[4-(1H-indazol-3-yl)-1H-1,2,3-triazol-1-yl]benzoyl}-N,N-dimethylpiperidin-4-amine] | < 0.1 | 0.1 to 1
13 | O=C(c1ccc(-n2cc(-c3n[nH]c4ccccc34)nn2)cc1)N1CCCC(C(=O)N2CCCC2)C1 (centres unmarked) [Example 73, 3-[1-(4-{[3-(pyrrolidin-1-ylcarbonyl)piperidin-1-yl]carbonyl}phenyl)-1H-1,2,3-triazol-4-yl]-1H-indazole] | < 0.1 | 0.1 to 1
14 | O=C(c1ccc(-n2cc(-c3n[nH]c4ccccc34)nn2)cc1)N1CCCC(CN2CCOCC2)C1 (centres unmarked) [Example 74] | 0.1 to 1 | 0.1 to 1
15 | O=C1CCCN1CC1CCCN(C(=O)c2ccc(-n3cc(-c4n[nH]c5ccccc45)nn3)cc2)C1 (centres unmarked) [Example 75, 1-[(1-{4-[4-(1H-indazol-3-yl)-1H-1,2,3-triazol-1-yl]benzoyl}piperidin-3-yl)methyl]pyrrolidin-2] | 0.1 to 1 | 0.1 to 1
16 | CN1CCCC2(CCCN(C(=O)c3ccc(-n4cc(-c5n[nH]c6ccccc56)nn4)cc3)C2)C1 (centres unmarked) [Example 76, 2-{4-[4-(1H-indazol-3-yl)-1H-1,2,3-triazol-1-yl]benzoyl}-8-methyl-2,8-diazaspiro[5.5]undecane] | < 0.1 | < 0.1
